# From patent publication US10507233B2, “Universal N-glycan binding reagent” (New England Biolabs, Inc., priority 2014, dated 2019)
# Target: T1, SNAP-Fbs: human Fbs sugar binding domain, wild type, SEQ ID NO: 2, fused to SNAP-tag (fusion SEQ ID NO: 3), on beads (Homo sapiens, UniProt Q9UK22)
# T1 construct: SNAP-only beads as control
# T1 sequence (Q9UK22 113-296): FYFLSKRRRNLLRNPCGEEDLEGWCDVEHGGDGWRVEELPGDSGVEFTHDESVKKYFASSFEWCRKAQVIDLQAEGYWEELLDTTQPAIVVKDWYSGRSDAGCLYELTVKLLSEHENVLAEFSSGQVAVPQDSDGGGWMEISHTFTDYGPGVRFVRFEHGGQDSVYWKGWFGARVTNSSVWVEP
# Assay: Binding of 2-AB labeled M3N2 to SNAP-Fbs beads versus SNAP control beads
# Details: 50 picomoles, low salt buffer, SNAP-Fbs beads vs SNAP control beads
# Description: SNAP-Fbs is efficiently conjugated to BG beads (SNAP Capture Pull-Down resin (New England Biolabs, Ipswich, Mass.): SNAP-Fbs protein is reacted with BG beads at 4° C. overnight in a DTT-containing buffer (4 mM DTT, 20 mM tris-HCl pH 7.5, 1 mM EDTA, 50 mM NaCl). After the conjugation reaction, SNAP-Fbs beads are washed with 40× bead volume of low salt buffer.
# When PNGase F is used to trim N-glycans away from the peptides or proteins, the terminal GlcNAc residue becomes available for modification. A common modification is fluorophore labeling using 2-AB dye. The primary amino group of the dye performs a nucleophilic attack on the carbonyl carbon of the acyclic reducing terminal residue to form a partially stable Schiff's base. […] The conserved terminal GlcNAc residue is thus referred to as the “reducing end” of a glycan species. Upon 2-AB labeling, the carbohydrate ring structure is no longer capable of forming. Fifty picomoles of 2-AB labeled M3N2 in low salt buffer were incubated with SNAP-Fbs beads or SNAP control beads (SNAP Capture beads conjugated to SNAP-tag Purified Protein, New England Biolabs, Ipswich, Mass.).
structure (smiles),measurement,value
CC(=O)N[C@H]1[C@H](O[C@@H]([C@H](O)[C@H](CNc2ccccc2C(N)=O)NC(C)=O)[C@H](O)CO)O[C@H](CO)[C@@H](O[C@@H]2O[C@H](CO[C@H]3O[C@H](CO)[C@@H](O)[C@H](O)[C@@H]3O)[C@@H](O)[C@H](O[C@H]3O[C@H](CO)[C@@H](O)[C@H](O)[C@@H]3O)[C@@H]2O)[C@@H]1O [2-AB labeled M3N2],binding of 2-AB labeled M3N2,2-AB labeling disrupts the interaction between glycan and Fbs and completely abolishes binding
